Key:
[1] = test system: SK-BR-3 (human breast cancer) transplanted tumor; assay: Combined administration with doxorubicin in SK-BR-3 transplanted mice; type: in vivo, Balb/c mice; conditions: after second intravenous administration of doxorubicin
[2] = test system: CD8 T cells and NK cells in blood; assay: Immune cell activity and weight recovery in doxorubicin-treated mice; type: in vivo, Balb/c mice; conditions: DOX 10 mg/kg on day 1 and 5; oral administration for 14 days; flow cytometry
[3] = mouse, in vivo

Compound	body weight change [1]	immune cells (CD8 T cell and NK cell) in blood [2]	BASO [3]	EOS [3]	HCT [3]	HGB [3]	LYM [3]	MCHC [3]	MONO [3]	NEUT [3]	PLT [3]	RBC [3]	WBC [3]
COc1cccc2c1C(=O)c1c(O)c3c(c(O)c1C2=O)C[C@@](O)(C(=O)CO)C[C@@H]3O[C@H]1C[C@H](N)[C@H](O)[C@H](C)O1 [DOX, doxorubicin]	rapid decrease in body weight	immune cells decreased	3.2%	3%	52.6%	16.5 g/dL	53.7%	15 g/dL	4.3%	33.9%	1954 ×10^3 cells/μL	10.99 ×10^6 cells/μL	6.57 ×10^3 cells/μL
fucoidan	–	–	1.5%	6.1%	39.8%	10.9 g/dL	14.3%	12 g/dL	4.6%	67.9%	1242 ×10^3 cells/μL	9.14 ×10^6 cells/μL	18.41 ×10^3 cells/μL

— US12465627B2, “Immunity-boosting agent, immuno-therapeutic anti-cancer agent, and anti-cancer therapy adverse effect mitigating agent containing anthocyanin-fucoidan complex as active ingredient” (JBKLAB CO., LTD., priority 2017, dated 2025)
